US4425356A, “Lankacidin derivatives used in swine husbandry” (Takeda Chemical Industries, Ltd., priority 1980, dated 1984)

Test: growth of pigs, 5-month continuous dietary administration, Test Examples 10-11
Assay type: in vivo, Landrace pigs
Details: for Body weight at end / Body weight at feed exchange / Body weight gain for starter feed period / Body weight gain for whole period / Feed conversion for starter feed period / Feed conversion for whole period / Feed intake for starter feed period / Feed intake for whole period: mean per head; for growth and feed efficiency (in words): dietary, 5 months
Method: Effects of compound (I) on the growth of pigs under the conditions in which swine dysentery was absent were examined. Thus, 40 one-month-old Landrace pigs (5 litters) were used in groups each consisting of 8 (4 males and 4 females). Lankacidin C was added in concentrations of 0 (control), 1, 2.5, 5 and 10 ppm to antibacterial agent-free starter feed for the period from the start of the test through the age of 3 months and to the feed for testing pigs for performance of meat production (also free of antibacterial agents) for the period from the age of 4 months to the age of 6 months (end). Thus, in each group, dietary lankacidin C was administered continuously for 5 months.
The data are each the mean value per head. Different alphabetic letters o
Fourty-eight 35-day-old Landrace pigs (6 litters) were used in 6 groups each consisting of 8 (4 males and 4 females). Lankacidin A was added in concentrations of 0 (control), 1, 2.5, 5, 10 and 20 ppm to antibacterial agent-free starter feed for the period from the start of the test through the age of 3 months and to the feed for testing pigs for performance of meat production (also free of antibacterial agents) for the period from the age of 4 months to the age of 6 months (end).

For CC(=O)OC1C=CC(C)=CCC(O)C=CC(C)=CC(NC(=O)C(C)=O)C2(C)C(=O)OC(C1)C(C)C2=O (centres unmarked) [Lankacidin A, lankacidin A], the “Body weight at end” value (1 ppm in feed) was 111.6 kg, the “Body weight at feed exchange” value (1 ppm in feed) was 34.0 kg and the “Body weight gain for starter feed period” value (1 ppm in feed) was 24.8 kg. The “Body weight gain for whole period” value (1 ppm in feed) was 102.4 kg, the “Feed conversion for starter feed period” value (1 ppm in feed) was 1.94 and the “Feed conversion for whole period” value (1 ppm in feed) was 2.88. The “Feed intake for starter feed period” value (1 ppm in feed) was 48.1 kg, the “Feed intake for whole period” value (1 ppm in feed) was 294.9 kg and the “Body weight at end” value (2.5 ppm in feed) was 113.5 kg. For the same molecule, the “Body weight at feed exchange” value (2.5 ppm in feed) was 34.6 kg, the “Body weight gain for starter feed period” value (2.5 ppm in feed) was 25.4 kg and the “Body weight gain for whole period” value (2.5 ppm in feed) was 104.4 kg. The “Feed conversion for starter feed period” value (2.5 ppm in feed) was 1.87, the “Feed conversion for whole period” value (2.5 ppm in feed) was 2.83 and the “Feed intake for starter feed period” value (2.5 ppm in feed) was 47.6 kg. For the same molecule, the “Feed intake for whole period” value (2.5 ppm in feed) was 295.3 kg, the “Body weight at end” value (5 ppm in feed) was 118.3 kg and the “Body weight at feed exchange” value (5 ppm in feed) was 36.1 kg. The “Body weight gain for starter feed period” value (5 ppm in feed) was 26.9 kg, the “Body weight gain for whole period” value (5 ppm in feed) was 109.1 kg and the “Feed conversion for starter feed period” value (5 ppm in feed) was 1.77. The “Feed conversion for whole period” value (5 ppm in feed) was 2.79, the “Feed intake for starter feed period” value (5 ppm in feed) was 47.6 kg and the “Feed intake for whole period” value (5 ppm in feed) was 304.3 kg. For the same molecule, the “Body weight at end” value (10 ppm in feed) was 120.5 kg, the “Body weight at feed exchange” value (10 ppm in feed) was 36.7 kg and the “Body weight gain for starter feed period” value (10 ppm in feed) was 27.6 kg. The “Body weight gain for whole period” value (10 ppm in feed) was 111.4 kg, the “Feed conversion for starter feed period” value (10 ppm in feed) was 1.73 and the “Feed conversion for whole period” value (10 ppm in feed) was 2.74. For the same molecule, the “Feed intake for starter feed period” value (10 ppm in feed) was 47.7 kg, the “Feed intake for whole period” value (10 ppm in feed) was 305.2 kg and the “Body weight at end” value (20 ppm in feed) was 123.4 kg. For the same molecule, the “Body weight at feed exchange” value (20 ppm in feed) was 37.4 kg, the “Body weight gain for starter feed period” value (20 ppm in feed) was 28.8 kg and the “Body weight gain for whole period” value (20 ppm in feed) was 114.2 kg. For the same molecule, the “Feed conversion for starter feed period” value (20 ppm in feed) was 1.71, the “Feed conversion for whole period” value (20 ppm in feed) was 2.72 and the “Feed intake for starter feed period” value (20 ppm in feed) was 48.2 kg. For the same molecule, the “Feed intake for whole period” value (20 ppm in feed) was 310.6 kg and the “growth and feed efficiency (in words)” value was “Swine growth was promoted proportionally to the increase of level of addition of lankacidin A, and the feed efficiency was improved accordingly”.

In the case of CC(=O)C(=O)NC1C=C(C)C=CC(O)CC=C(C)C=CC(O)CC2OC(=O)C1(C)C(=O)C2C (centres unmarked) [Lankacidin C, lankacidin C], the “Body weight at end” value (1 ppm in feed) is reported as 102.4 kg, the “Body weight at feed exchange” value (1 ppm in feed) is reported as 32.7 kg and the “Body weight gain for starter feed period” value (1 ppm in feed) is reported as 25.4 kg. For the same molecule, the “Body weight gain for whole period” value (1 ppm in feed) was 95.0 kg, the “Feed conversion for starter feed period” value (1 ppm in feed) was 1.95 and the “Feed conversion for whole period” value (1 ppm in feed) was 2.90. The “Feed intake for starter feed period” value (1 ppm in feed) was 49.4 kg, the “Feed intake for whole period” value (1 ppm in feed) was 275.6 kg and the “Body weight at end” value (2.5 ppm in feed) was 104.6 kg. The “Body weight at feed exchange” value (2.5 ppm in feed) was 34.2 kg, the “Body weight gain for starter feed period” value (2.5 ppm in feed) was 26.9 kg and the “Body weight gain for whole period” value (2.5 ppm in feed) was 97.2 kg. For the same molecule, the “Feed conversion for starter feed period” value (2.5 ppm in feed) was 1.83, the “Feed conversion for whole period” value (2.5 ppm in feed) was 2.86 and the “Feed intake for starter feed period” value (2.5 ppm in feed) was 49.1 kg. For the same molecule, the “Feed intake for whole period” value (2.5 ppm in feed) was 278.0 kg, the “Body weight at end” value (5 ppm in feed) was 109.0 kg and the “Body weight at feed exchange” value (5 ppm in feed) was 36.9 kg. For the same molecule, the “Body weight gain for starter feed period” value (5 ppm in feed) was 29.5 kg, the “Body weight gain for whole period” value (5 ppm in feed) was 101.7 kg and the “Feed conversion for starter feed period” value (5 ppm in feed) was 1.72. The “Feed conversion for whole period” value (5 ppm in feed) was 2.80, the “Feed intake for starter feed period” value (5 ppm in feed) was 50.7 kg and the “Feed intake for whole period” value (5 ppm in feed) was 284.6 kg. The “Body weight at end” value (10 ppm in feed) was 110.2 kg, the “Body weight at feed exchange” value (10 ppm in feed) was 37.5 kg and the “Body weight gain for starter feed period” value (10 ppm in feed) was 30.1 kg. For the same molecule, the “Body weight gain for whole period” value (10 ppm in feed) was 102.8 kg, the “Feed conversion for starter feed period” value (10 ppm in feed) was 1.70 and the “Feed conversion for whole period” value (10 ppm in feed) was 2.77. For the same molecule, the “Feed intake for starter feed period” value (10 ppm in feed) was 51.2 kg, the “Feed intake for whole period” value (10 ppm in feed) was 284.8 kg and the “growth and feed efficiency (in words)” value was “growth of pigs was increased in a manner almost proportional to the level of addition of lankacidin C, and accordingly the feed efficiency was improved”.
